Data from patent US20120202756A1, “USE OF PRODRUGS TO AVOID GI MEDIATED ADVERSE EVENTS” (priority 2009, published 2012).
In brackets after ≈: the same amount, converted by molar mass. Where a name gives a salt, the structure may show the parent alone. Read-outs that look alike come from different tables or passages of the source.

Columns and labels:
[1] = system: Peptostreptococcus anaerobius; assay: MIC, clindamycin prodrugs; assay type: cell-based; settings: NCTC 11460
Clostridium sordellii [2] = settings: NCTC 13356
[3] = Stability in simulated intestinal juice (FeSSIF); assay type: in vitro ADME; settings: FeSSIF pH 5.0, pancreatin 1%
Description: (§1) To avoid direct interaction between the active drug and the gut microfloral population, the prodrug should not undergo premature chemical or enzymic cleavage back to the parent dug while within the gut lumen. To confirm this the prodrugs were incubated with USP SGF (simulated gastric fluid), FeSSIF (fed state simulated intestinal fluid) and FaSSIF (fasted state simulated intestinal fluid) and remaining prodrug and any generated active drug assayed by use of a qualified LC-MS/MS analytical method.
Pancreatin was again added at 1%.
(§2) To minimize the direct inhibitory action of this drug on gastric emptying/gut motility—and resultant nausea—the prodrug should not undergo premature chemical or enzymic cleavage back to the parent drug while within the gut lumen. To confirm this, the prodrugs were incubated with USP SGF (simulated gastric fluid), FeSSIF (fed state simulated intestinal fluid) and FaSSIF (fasted state simulated intestinal fluid) and remaining prodrug, and any generated active drug, assayed by use of a qualified LC-MS/MS analytical method.
as §1, with “gut,” for “gut microfloral population,”

Streptococcus agalactiae = settings: antibiotic-susceptable clinical isolate
Clostridium bifermentans = settings: ATCC 638
[4] = system: Staphylococcus saprophyticus; settings: antibiotic susceptible clinical isolate
[5] = Stability in simulated intestinal juice (FaSSIF); assay type: in vitro ADME; settings: FaSSIF pH 6.5, pancreatin 1%, prodrug 20 μg/mL
Description: as §1
(§3) Method—Prodrug (20 μg/mL) in the FaSSIF cocktail comprising sodium taurocholate 3 mM, lecithin 0.75 mM, NaOH 8.7 mM, NaH2PO4. H2O 28.7 mM, NaCl 106 mM, pancreatin 1% (overall pH 6.5) was incubated for 2 h at 37° C. After acidifying the incubation to stop any reaction the amount of prodrug remaining and drug generated were determined using a qualified LC-MS/MS method.
as §2
as §3, with “Prodrug” for “Method—Prodrug”
as §1, with “gut,” for “gut microfloral population,”

Enterococcus faecalis [6] = settings: ATCC 29212 antibiotic-susceptible type strain
Clostridium difficile [7] = system: Clostridium difficile
[8] = system: Peptostreptococcus micros; settings: clinical isolate
Prevotella oralis = settings: clinical isolate
Group G Streptococcus = settings: antibiotic-susceptible clinical isolate
Streptococcus oralis [9] = settings: antibiotic-susceptible clinical isolate
Enterococcus faecalis [10] = assay: microbe, parasite or virus in culture; settings: ATCC29212, read-out: Minimum inhibitory concentration
[11] = system: Peptostreptococcus magnus; assay: microbe, parasite or virus in culture; settings: Finegoldia magna, read-out: Minimum inhibitory concentration
Clostridium novyi = assay: microbe, parasite or virus in culture; settings: ATCC19402, read-out: Minimum inhibitory concentration
Streptococcus mitis = assay: microbe, parasite or virus in culture; settings: read-out: Minimum inhibitory concentration
[12] = system: Porphyromonas endodontalis; assay: microbe, parasite or virus in culture; settings: read-out: Minimum inhibitory concentration
Veillonella spp. = assay: microbe, parasite or virus in culture; settings: read-out: Minimum inhibitory concentration
Clostridium sordellii [13] = assay: microbe, parasite or virus in culture; settings: Paraclostridium sordellii, NCTC13356, read-out: Minimum inhibitory concentration
[14] = system: Streptococcus constellatus; assay: microbe, parasite or virus in culture; settings: read-out: Minimum inhibitory concentration
[15] = system: Fusobacterium necrophorum; assay: microbe, parasite or virus in culture; settings: read-out: Minimum inhibitory concentration
[16] = system: Peptostreptococcus micros; assay: microbe, parasite or virus in culture; settings: Parvimonas micra, read-out: Minimum inhibitory concentration
Enterococcus faecium = assay: microbe, parasite or virus in culture; settings: read-out: Minimum inhibitory concentration
Prevotella bivia = assay: microbe, parasite or virus in culture; settings: ATCC29303, read-out: Minimum inhibitory concentration
Clostridium difficile [17] = assay: microbe, parasite or virus in culture; settings: Clostridioides difficile
Streptococcus oralis [18] = assay: microbe, parasite or virus in culture; settings: read-out: Minimum inhibitory concentration
[19] = antibiotic-susceptible clinical isolate
[20] = ribotype 002 - clinical isolate
[21] = ribotype 011 - clinical isolate
[22] = ribotype 027 - clinical isolate
[23] = ribotype 050 - clinical isolate
[24] = ribotype 176 - clinical isolate

## CCCC1CC(C(=O)NC(C(C)Cl)C2OC(SC)C(OC(=O)CCC(=O)N[C@H](C(=O)O)C(C)C)C(O)C2O)N(C)C1 (stereo partly drawn) [Clindamycin succinyl valine ester, Clindamycin-2-[succinyl-(S)-valine]ester trifluoroacetate]
[1]
  Minimum inhibitory concentration: 8 µg/mL
Clostridium sordellii [2]
  Minimum inhibitory concentration: 16 µg/mL
[3]
  Simulated intestinal juice (2 h, 37° C.) (FeSSIF) % active drug generated: <1%
Streptococcus agalactiae
  Minimum inhibitory concentration: 1 µg/mL
Clostridium bifermentans
  Minimum inhibitory concentration: 4 µg/mL
[4]
  Minimum inhibitory concentration: 1 µg/mL
[5]
  Simulated intestinal juice (2 h, 37° C.) (FaSSIF) % active drug generated: <1%
Enterococcus faecalis [6]
  Minimum inhibitory concentration: >64 µg/mL
Clostridium difficile [7]; ATCC 700057
  Minimum inhibitory concentration: >64 µg/mL
Clostridium difficile [7]; NCTC 13366 - NAP1/027
  Minimum inhibitory concentration: 64 µg/mL
Clostridium difficile [7]; [19]
  Minimum inhibitory concentration: >64 µg/mL
Clostridium difficile [7]; [20]
  Minimum inhibitory concentration: 64 µg/mL
Clostridium difficile [7]; [21]
  Minimum inhibitory concentration: 64 µg/mL
Clostridium difficile [7]; [22]
  Minimum inhibitory concentration: 64 µg/mL
Clostridium difficile [7]; [23]
  Minimum inhibitory concentration: 32 µg/mL
Clostridium difficile [7]; [24]
  Minimum inhibitory concentration: >64 µg/mL
[8]
  Minimum inhibitory concentration: 2 µg/mL
Prevotella oralis
  Minimum inhibitory concentration: ≦0.03 ug/mL
Group G Streptococcus
  Minimum inhibitory concentration: 1 µg/mL
Streptococcus oralis [9]
  Minimum inhibitory concentration: 0.25 µg/mL

## CCC[C@@H]1C[C@@H](C(=O)N[C@@H]([C@H]2O[C@H](SC)[C@H](O)[C@@H](O)[C@H]2O)[C@H](C)Cl)N(C)C1 [Clindamycin, clindamycin, reference compound]
Enterococcus faecalis [10]
  MIC: 8 µg/mL (≈ 18.8 µM)
[11]
  MIC: 0.5 µg/mL (≈ 1.18 µM)
Clostridium novyi
  MIC: ≤ 0.03 µg/mL
Streptococcus mitis
  MIC: ≤ 0.03 µg/mL
[12]
  MIC: ≤ 0.03 µg/mL
Veillonella spp.
  MIC: ≤ 0.03 µg/mL
Clostridium sordellii [13]
  MIC: 0.5 µg/mL (≈ 1.18 µM)
[14]
  MIC: ≤ 0.03 µg/mL
[15]
  MIC: ≤ 0.03 µg/mL
[16]
  MIC: 0.06 µg/mL (≈ 0.141 µM)
Enterococcus faecium
  MIC: 32 µg/mL (≈ 75.3 µM)
Prevotella bivia
  MIC: ≤ 0.03 µg/mL
Clostridium difficile [17]; ATCC700057, read-out: Minimum inhibitory concentration, ATCC 700057
  MIC: 8 µg/mL (≈ 18.8 µM)
Clostridium difficile [17]; NCTC13366, read-out: Minimum inhibitory concentration, NCTC 13366 - NAP1/027
  MIC: 4 µg/mL (≈ 9.41 µM)
Clostridium difficile [17]; read-out: Minimum inhibitory concentration, antibiotic-susceptible clinical isolate
  MIC: 8 µg/mL (≈ 18.8 µM)
Clostridium difficile [17]; read-out: Minimum inhibitory concentration, ribotype 002 - clinical isolate
  MIC: 2 µg/mL (≈ 4.71 µM)
Clostridium difficile [17]; read-out: Minimum inhibitory concentration, ribotype 011 - clinical isolate
  MIC: 4 µg/mL (≈ 9.41 µM)
Clostridium difficile [17]; read-out: Minimum inhibitory concentration, ribotype 027 - clinical isolate
  MIC: 4 µg/mL (≈ 9.41 µM)
Clostridium difficile [17]; read-out: Minimum inhibitory concentration, ribotype 050 - clinical isolate
  MIC: 4 µg/mL (≈ 9.41 µM)
Clostridium difficile [17]; read-out: Minimum inhibitory concentration, ribotype 176 - clinical isolate
  MIC: 4 µg/mL (≈ 9.41 µM)
Streptococcus oralis [18]
  MIC: ≤ 0.03 µg/mL

## CCCC1CC(C(=O)NC(C(C)Cl)C2OC(SC)C(OC(=O)CCCC(=O)Nc3ccc(C(=O)O)cc3)C(O)C2O)N(C)C1.O=C(O)C(F)(F)F (stereo not shown) [Clindamycin glutaryl PABA ester, Clindamycin-2-(glutaryl-PABA) ester trifluoroacetate]
[1]
  Minimum inhibitory concentration: 32 µg/mL
Clostridium sordellii [2]
  Minimum inhibitory concentration: >64 µg/mL
[3]
  Simulated intestinal juice (2 h, 37° C.) (FeSSIF) % active drug generated: <1%
Streptococcus agalactiae
  Minimum inhibitory concentration: 2 µg/mL
Clostridium bifermentans
  Minimum inhibitory concentration: 32 µg/mL
[4]
  Minimum inhibitory concentration: 4 µg/mL
[5]
  Simulated intestinal juice (2 h, 37° C.) (FaSSIF) % active drug generated: <1%
Enterococcus faecalis [6]
  Minimum inhibitory concentration: >64 µg/mL
Clostridium difficile [7]; ATCC 700057
  Minimum inhibitory concentration: >64 µg/mL
Clostridium difficile [7]; NCTC 13366 - NAP1/027
  Minimum inhibitory concentration: >64 µg/mL
Clostridium difficile [7]; [19]
  Minimum inhibitory concentration: >64 µg/mL
Clostridium difficile [7]; [20]
  Minimum inhibitory concentration: >64 µg/mL
Clostridium difficile [7]; [21]
  Minimum inhibitory concentration: >64 µg/mL
Clostridium difficile [7]; [22]
  Minimum inhibitory concentration: >64 µg/mL
Clostridium difficile [7]; [23]
  Minimum inhibitory concentration: >64 µg/mL
Clostridium difficile [7]; [24]
  Minimum inhibitory concentration: >64 µg/mL
[8]
  Minimum inhibitory concentration: 8 µg/mL
Prevotella oralis
  Minimum inhibitory concentration: ≦0.03 ug/mL
Group G Streptococcus
  Minimum inhibitory concentration: 2 µg/mL
Streptococcus oralis [9]
  Minimum inhibitory concentration: 0.5 µg/mL
